Measured values reported in patent publication US9820483B2, “Microbial composition” (Rohm and Haas Company, priority 2011, dated 2017).

Key:
S. aureus ATCC 6538 = experiment: Synergy of terpinyl alcohols with phenolic compounds in water, 15 seconds contact, plate count log reduction; assay type: cell-based, Staphylococcus aureus; conditions: 0.1% alone
Experimental: Liquid actives were used directly. Solid actives were dissolved in alcohol and a 50% stock was made.
The culture was grown overnight in Tryptone soya agar. It was suspended in saline (0.85% NaCl) to a con. of 1.5×10^8-5×10^8 cells/ml
To 9 ml water the actives were added to give the desired concentration. 1 ml of the culture was added and mixed. After 15 seconds contact 1 ml aliquot was removed and added to a neutraliser and kept for 5 minutes. A control of untreated cells was similarly processed. It was then diluted and plated. The plates were incubated at 37° C. for 24 hours. The colonies on the plates were counted. The counts were converted to log10. The log. no. of survivors was determined and log reduction calculated.

[1] = system: Escherichia coli (10536 strain); experiment: Antimicrobial efficacy in water, 15 seconds contact, mean bacterial survival NMBS on TSA plates; assay type: cell-based; conditions: E. coli, 15 s
Experimental: Antimicrobial efficacy is tested against a representative pathogenic bacterial organism, Gram negative Escherichia coli. Concentrations of actives are expressed in terms of the percentage weight/volume (% w/v) throughout the following Examples. […] Here, OD620 indicates the absorbance of a sample in a cuvette of 1.0 cm path length at a wavelength of 620 nm. This bacterial stock was used for assaying against antimicrobial actives (in triplicate). The following assay describes the testing of 8 materials using 6 dilutions across half of a 96-well micro titre plate (MTP). […] 1M solutions of the test actives were prepared in dimethylsulphoxide (DMSO). […] This MTP was labelled as the “Screening plate”. […] The composition of the neutralising solution was as follows: pancreatic digest of casein, 5.0 g/L; […] 270 μl of tryptone diluent solution was added to all the remaining wells of the Dilution MTP (columns 2-6). […] After a contact time of 15 seconds, the mixtures were quenched by transferring 30 μl volumes of the mixtures into the 270 μl D/E neutralising solution in the prepared dilution plate, using aspiration to mix. […] Mean bacterial survival numbers NMBS (expressed in Log CFU/ml) are obtained by first determining the segment of the TSA plate where the number of bacterial colonies is countable. From the colony number in this segment. NMBS is calculated by the formula: […] DF may range from 1 for the quench, to 6 for the highest dilution). The factor 100/3 is a conversion factor from the volume of the inocula spot to one milliliter. Every assay test was performed in triplicate. The reported mean bacterial survival results are the average of such a triplet, the error is the corresponding standard deviation. […] Such a count of about 7 is generally observed when bacteria are exposed to non-biocidal materials.

[2] = system: Escherichia coli (E. coli—ATCC #10536); experiment: Automated assessment of efficacy in model surfactant base (2.85% sodium cocoyl glycinate + 1.85% sodium lauroamphoacetate, pH 10), 15 seconds exposure, delta OD450/OD590 in D/E quench; assay type: cell-based
Experimental: Solutions were prepared such that the concentrations of the surfactant components and test actives were 1.1× the final desired concentration in order to allow for dilution with the bacterial inoculum in the test. The solutions were manually adjusted to pH 10.0 by dropwise addition of sodium hydroxide solution, as measured with a pH meter at ambient temperature.
Tests were conducted using standard microtiter plate assays using an automated liquid handling system. 270 μl of the surfactant test solution was pipetted into each well of the microtitre plate and 30 μl of the bacterial suspension was then added. After exactly 15 seconds of bacterial exposure, a 30 μl volume of bacterial cells was withdrawn and transferred to 270 μl of D/E quench solution. After 5 minutes in the D/E quench, the optical density (OD) was measured for each plate in turn at two specific wavelengths (450 nm and 590 nm). These provide a dual check of antimicrobial activity, as the OD450 reading is specific for the yellow colour of D/E quench when bacterial growth is observed, whereas OD590 is specific for the initial purple colour of the D/E quench which is retained if no bacterial growth is observed. After the time zero OD measurements, plates were then incubated at 37° C. overnight (16 hours) before repeating the OD measurements. Delta OD values were calculated by subtracting […]. Bacterial growth is observed as an increase in OD450 and a decrease in ΔOD590. To identify antibacterially efficacious systems (those preventing appreciable bacterial growth after incubation), the following threshold changes in OD readings have been adopted: if (1). OD450 increases by less than 0.2 absorbance unit on incubation and (2). OD590 decreases by less than 0.35 unit on incubation. Conversely, where OD450 increases by more than 0.2 AU and OD590 decreases by more than 0.35 unit after incubation, corresponding to a colour shift from purple to yellow, the test system allows bacterial growth and is not deemed efficacious. Four replicate measurements in the same plate have been made for each test system. The number of replicate wells showing either bacterial growth or no growth is also readily assessed by eye by following the colour change.
Dose responses for individual components and binary mixtures of actives at a fixed concentration ratio were generated by sequential dilution of liquors with further surfactant solution to obtain a series of endpoints.
In some selected cases, the combinations were also tested at the weight ratio 1:1.
The method used was the same as in the above Table.

| Structure (SMILES) | Log reduction S. aureus ATCC 6538 (S. aureus ATCC 6538) | NMBS ([1]; 0.3% w/v alone) [log CFU/ml] | NMBS ([1]; 0.4% w/v alone) [log CFU/ml] | NMBS ([1]; […] w/v alone) [log CFU/ml] | MBC ([1]; component alone, in water) | MBC ([2]; Escherichia coli, ATCC10536, 15 s, in 2.85% sodium cocoyl glycinate + 1.85% sodium lauroamphoacetate solution at pH 10, E. coli, read-out: MBC) [µg/mL] | No. of replicates showing growth (out of 4) ([2]; single active at 0.3% w/v) | Δ OD 590 nm = OD590 (time = 16 hours) − OD590 (time zero), Mean ([2]; single active at 0.3% w/v) | ΔOD 450 nm = OD450 (time = 16 hours) − OD450 (time zero), Mean ([2]; single active at 0.3% w/v) | No. of replicates showing growth (out of 4) ([2]; single active at 0.5% w/v) | Δ OD 590 nm = OD590 (time = 16 hours) − OD590 (time zero), Mean ([2]; single active at 0.5% w/v) | ΔOD 450 nm = OD450 (time = 16 hours) − OD450 (time zero), Mean ([2]; single active at 0.5% w/v) | No. of replicates showing growth (out of 4) ([2]; single active at […] w/v) | Δ OD 590 nm = OD590 (time = 16 hours) − OD590 (time zero), Mean ([2]; single active at […] w/v) | ΔOD 450 nm = OD450 (time = 16 hours) − OD450 (time zero), Mean ([2]; single active at […] w/v) |
| --- | --- | --- | --- | --- | --- | --- | --- | --- | --- | --- | --- | --- | --- | --- | --- |
| CC=Cc1ccccc1O [2-propenylphenol] | 1.92 | – | – | – | – | – | – | – | – | – | – | – | – | – | – |
| C=C(C)C1CCC(C)CC1O (stereo not drawn) [isopulegol, 5-methyl-2-(prop-1-en-2-yl)cyclohexanol] | – | 0 | 0 | 7.77 | 0.3 % (w/v) | > 5000 | 4 | 0.61 | −0.49 | 2 | 0.42 | −0.09 | 4 | 0.59 | −0.54 |
